Measured values reported in patent US20240327415A1, “Multicomponent Complexes, Including Salts, Crystalline Forms, and Hydrates and Solvates of ENT1 Inhibitors” (iTeos Belgium SA, priority 2023, published 2024).
Each block holds one molecule with its values, some of them ahead of it.

Assays:
Format in all cases: physicochemical
[1] = salt screen, XRPD of damp, dried and 40° C./75% RH stored samples (Salt Preparation Methods 1 and 2); parameters: key: A = amorphous; Evap. = isolated via evaporation; conditions: L-Malic acid, 1 equiv.
Outline: (§1)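 XRPD was recorded three times: on damp solids isolated at 5 °C, after ~17–91 h vacuum drying at ~40 °C, and after 24–48 h storage at 40 °C/75% RH. Solids came from stirring free base with 1.0 or 2.0 equiv. counterion at 40 °C, 40–5 °C temperature cycling, and anti-solvent addition.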

[2] = as above; conditions: L-Malic acid, 1 equiv., AS Heptane
Outline: as §1

[3] = as above; parameters: key: A = amorphous; * = predominantly; 1 = Form 1 Compound 1 L-malate; 2 = Form 2 Compound 1 L-malate; conditions: L-Malic acid, 1 equiv.; MEK; AS Heptane
Description: Salt Preparation Method 1: Approximately 25 mg of Compound 1 (free base) was weighed out into 1.5 mL screw-cap vials and a stirrer bar was added. For solid counterions, the appropriate amount of acid (1.0 or 2.0 equiv.) was weighed into separate 1.5 mL screw-cap vials. 100 μL of the appropriate solvent system was added to both the Compound 1 and the solid counterions. Stock solutions of liquid counterions were prepared, such that 100 μL contained 1.0 or 2.0 equiv. of acid. See counterion and solvent lists in Table 60 and Table 61 respectively.
The samples were stirred at 40° C. for 5-10 min and then the acid solutions were added to Compound 1, rinsing out the transfer vial with a further 50 μL of solvent. […] Experiments were temperature cycled between 40° C. and 5° C. […]
Temperature cycling was then continued for ca. 16-69 h, followed by further ASA and temperature cycling if required. Material was isolated at 5° C. and analyzed damp by XRPD. All isolated material was dried under vacuum at ca. 40° C. for ca. 17-91 h then re-analyzed by XRPD. The XRPD plate was stored at 40° C./75% RH for 24-48 h and then samples re-analyzed. […] Any residual solids were analyzed by XRPD. […]
The experiments were stirred at 40° C. for ca. 1 h, and then temperature cycled between 40° C. and 5° C. with 0.1° C./min ramp and 1 h hold between each step. […] The damp and dried solids were subsampled and analyzed by XRPD. […]

[4] = seven-day solid stability studies (ambient; 40° C./75% RH; 80° C.), XRPD and HPLC; parameters: key: Crystalline Form 3 di(hydrogen sulfate); Crystalline Form 9 di(hydrogen sulfate); Melt/Amorphous; conditions: 7 days, sealed
Description: (§2) In the experiment, one set of vials was exposed to ambient light, temperature and humidity conditions. Another was exposed openly to 40° C. and 75% RH conditions and a third was sealed and exposed to 80° C. conditions. After 7 days, XRPD and HPLC measurements were collected.
(§3) Example 12-Stability Studies of Amorphous Compound 1 (free base) and Crystalline Form 1 Compound 1 (free base): Seven-day stability studies were carried out comparing amorphous Compound 1 (free base) and crystalline Form 1 Compound 1 (free base) at 40° C./75% RH, under ambient conditions and at 80° C. After storage at 40° C./75% RH and 80° C., the amorphous material formed glassy solids which were pale yellow (40° C./75% RH) or orange (80° C.). It is likely that the material melted and re-solidified at 80° C. and deliquesced at 40° C./75% RH. […] (decrease in purity of ca. 11% area).
(§4) Example 15-Stabilities Studies-Crystalline Form 3 Compound 1 di(hydrogen sulfate) and Crystalline Form 4 Compound 1 mono(hydrogen sulfate): Seven-day stability studies were carried out on the prepared crystalline Form 3 Compound 1 di(hydrogen sulfate) and crystalline Form 4 Compound 1 mono(hydrogen sulfate) using the following conditions: (1) Ambient light, temperature and humidity conditions (open vial); (2) 40° C./75% RH (open vial); and (3) 80° C. (closed vial). […]

[5] = hydration mapping studies (slurries at different water activities, Example 17); conditions: aw 0.1, dried 40° C. reduced pressure 24 hr
Description: Example 17—Hydration Mapping Studies-Crystalline Form 2 Compound 1 di(hydrogen sulfate) trihydrate, Crystalline Form 3 Compound 1 di(hydrogen sulfate), and Blend: The effects of different water activities on crystalline Form 2 Compound 1 di(hydrogen sulfate) trihydrate, crystalline Form 3 Compound 1 di(hydrogen sulfate) and a blend of the two were investigated. The “blend” was prepared by mixing crystalline Form 2 Compound 1 di(hydrogen sulfate) trihydrate and crystalline Form 3 Compound 1 di(hydrogen sulfate) in a 1:1 ratio. To the vials containing the required solid material, the appropriate solvent system was added to form slurries. The slurry samples were stirred at the required temperatures during and after the solvent addition. Where dissolution was observed post-solvent addition, additional solid was added to re-saturate the sample. After stirring at the required temperature for 48 hours, the residual solids left in the vials were analyzed by XRPD to assess the solid forms. The analyzed samples were then dried on the XRPD plate under reduced pressure at 40° C. for 24 hr. The dried samples were analyzed by XRPD.

[6] = seven-day solid stability studies (ambient; 40° C./75% RH; 80° C.), XRPD and HPLC; parameters: key: Crystalline Form 2 di(hydrogen sulfate) trihydrate; Crystalline Form 3 di(hydrogen sulfate); M4: Crystalline Form 4 mono(hydrogen sulfate); Crystalline Form 6 di(hydrogen sulfate); 3 + 9: Mixture of Crystalline Form 3 di(hydrogen sulfate) and Crystalline Form 9 di(hydrogen sulfate); conditions: 7 days, 80° C. (closed vial)
Description: as §2, §3, §4

[7] = as above
Description: as §2, §3
Example 15-Stabilities Studies-Crystalline Form 3 Compound 1 di(hydrogen sulfate) and Crystalline Form 4 Compound 1 mono(hydrogen sulfate): Seven-day stability studies were carried out on the prepared crystalline Form 3 Compound 1 di(hydrogen sulfate) and crystalline Form 4 Compound 1 mono(hydrogen sulfate) using the following conditions: (1) Ambient light, temperature and humidity conditions (open vial); (2) 40° C./75% RH (open vial); and (3) 80° C. (closed vial). After 7 days of storage under the specified conditions, XRPD and HPLC analyses were carried out on the residual solid materials, and the results are summarized in Table 51.
Example 18-Seven Day Stability Study on Crystalline Form 2 Compound 1 di(hydrogen sulfate) trihydrate: A 7-day stability study was conducted on crystalline Form 2 Compound 1 di(hydrogen sulfate) trihydrate using the following conditions: (1) ambient light, temperature, and humidity conditions (open vial); (2) 40° C., 75% RH (open vial); and (3) 80° C. (closed vial). After 7 days of storage under the specified, XRPD and HPLC analyses were carried out on the residual solid materials.

XRPD Analysis 40° C. 75% RH ([1]; Acetonitrile, AS tBME): A
XRPD Analysis Damp ([1]; Acetonitrile, AS tBME): A
XRPD Analysis Dry ([1]; Acetonitrile, AS tBME): A
XRPD Analysis 40° C. 75% RH ([1]; Ethanol, AS Heptane): A
XRPD Analysis 40° C. 75% RH ([1]; Ethyl acetate, AS Heptane): A
XRPD Analysis Damp ([1]; Ethyl acetate, AS Heptane): A
XRPD Analysis Dry ([1]; Ethyl acetate, AS Heptane): A
XRPD Analysis 40° C. 75% RH ([1]; IPA:H2O (75:25% v/v), AS tBME): A
XRPD Analysis Damp ([1]; IPA:H2O (75:25% v/v), AS tBME): A
XRPD Analysis Dry ([1]; IPA:H2O (75:25% v/v), AS tBME): A
XRPD Analysis 40° C. 75% RH ([1]; THE, AS Heptane): A
XRPD Analysis Damp ([1]; THE, AS Heptane): A
XRPD Analysis Dry ([1]; THE, AS Heptane): A
XRPD Analysis Damp ([2]; Ethanol): * A
XRPD Analysis Dry ([2]; Ethanol): * A
XRPD Analysis Damp ([2]; MEK): 1 + 2
XRPD Analysis Dry ([2]; MEK): 1 + 2
XRPD Analysis 40° C. 75% RH [3]: 1
Compound: O=C(O)CC(O)C(=O)O [L-Malic acid, 1 equiv.]

Compound: COc1cc(C(=O)O[C@@H]2CCCOc3cc(cc(OC)c3OC)C(=O)NCCCN3CCCN(CC2)CC3)cc(OC)c1OC.O=S(=O)(O)O.O=S(=O)(O)O [Form 3 di(hydrogen sulfate)]
XRPD [4]: 9
XRPD, hydration studies - dried samples ([5]; 20° C., 2-Propanol:Water): 3, PC
XRPD, hydration studies - dried samples ([5]; 20° C., Acetonitrile:Water): 3, PC
XRPD, hydration studies - dried samples ([5]; 50° C., 2-Propanol:Water): 1, PC
XRPD, hydration studies - dried samples ([5]; 50° C., Acetonitrile:Water): 3, PC
XRPD [6]: 3 + 9
HPLC ([7]; 7 days, 40° C./75% RH (open vial)): 99.82 % area
HPLC ([7]; 7 days, 40° C./75% RH, open vial): 99.82 % area
HPLC ([7]; 7 days, 80° C. (closed vial)): 99.80 % area
HPLC ([7]; 7 days, 80° C., sealed): 99.80 % area
HPLC ([7]; 7 days, Ambient (open vial)): 99.84 % area
HPLC ([7]; 7 days, Ambient, open vial): 99.84 % area
HPLC ([7]; Input sample): 99.83 % area
